Data: PubChem BioAssay AID1963856 (Molecular Pharmacology Branch, DTP, NCI, 2024)

System: LG0567-F671-PDC KRAS tumor spheroid viability
Test: Anticancer human tumor LG0567-F671-PDC patient-derived lung adenocarcinoma cell line growth inhibition [KRAS2]
Settings: spheroids with HUVEC and MSC; for IC50: curve of first compound; for viability, T/C: stronger effect = lower value
In short: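 KRAS-mutant tumor cells were grown as spheroids with HUVEC endothelial cells and human MSCs as stroma. Targeted agents were tested alone and with KRAS pathway inhibitors. Doses started at or near clinical Cmax, or 10 microM, descending half-log.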

[1] = second compound 0.1 µM, first compound 0.0316 µM
[2] = second compound 0.1 µM, first compound 0.1 µM
[3] = second compound 0.1 µM, first compound 0.316 µM
[4] = second compound 0.1 µM, first compound 1 µM
[5] = second compound 0.1 µM, first compound 3.16 µM
[6] = second compound 0.1 µM, first compound 10 µM
[7] = second compound 0.316 µM, first compound 0.0316 µM
[8] = second compound 0.316 µM, first compound 0.1 µM
[9] = second compound 0.316 µM, first compound 0.316 µM
[10] = second compound 0.316 µM, first compound 1 µM
[11] = second compound 0.316 µM, first compound 3.16 µM
[12] = second compound 0.316 µM, first compound 10 µM
[13] = second compound 1 µM, first compound 0.0316 µM
[14] = second compound 1 µM, first compound 0.1 µM
[15] = second compound 1 µM, first compound 0.316 µM
[16] = second compound 1 µM, first compound 1 µM
[17] = second compound 1 µM, first compound 3.16 µM
[18] = second compound 1 µM, first compound 10 µM
[19] = second compound 3.16 µM, first compound 0.0316 µM
[20] = second compound 3.16 µM, first compound 0.1 µM
[21] = second compound 3.16 µM, first compound 0.316 µM
[22] = second compound 3.16 µM, first compound 1 µM
[23] = second compound 3.16 µM, first compound 3.16 µM
[24] = second compound 3.16 µM, first compound 10 µM
[25] = second compound 10 µM, first compound 0.0316 µM
[26] = second compound 10 µM, first compound 0.1 µM
[27] = second compound 10 µM, first compound 0.316 µM
[28] = second compound 10 µM, first compound 1 µM
[29] = second compound 10 µM, first compound 3.16 µM
[30] = second compound 10 µM, first compound 10 µM
[31] = second compound 0.1 µM, first compound 0.01 µM
[32] = second compound 0.316 µM, first compound 0.01 µM
[33] = second compound 1 µM, first compound 0.01 µM
[34] = second compound 3.16 µM, first compound 0.01 µM
[35] = second compound 10 µM, first compound 0.01 µM
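Further: drug exposure lasted seven days after spheroids formed for three days.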
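Wherever viability, T/C is given: 100% = DMSO vehicle control viability.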

SMILES | IC50 (second compound 0.1 µM) [nM] | IC50 (second compound 0.316 µM) [nM] | IC50 (second compound 1 µM) [nM] | IC50 (second compound 3.16 µM) [nM] | IC50 (second compound 10 µM) [nM] | viability, T/C [1] [%] | viability, T/C [2] [%] | viability, T/C [3] [%] | viability, T/C [4] [%] | viability, T/C [7] [%] | viability, T/C [8] [%] | viability, T/C [9] [%] | viability, T/C [10] [%] | viability, T/C [13] [%] | viability, T/C [14] [%] | viability, T/C [15] [%] | viability, T/C [16] [%] | viability, T/C [19] [%] | viability, T/C [20] [%] | viability, T/C [21] [%] | also measured
CCNC(=O)CC1N=C(c2ccc(Cl)cc2)c2cc(OC)ccc2-n2c(C)nnc21 (stereo not given) + CC1OCC2(CCN(c3cnc(Sc4ccnc(N)c4Cl)c(N)n3)CC2)C1N | 278 | 39.9 | < 31.6 | < 31.6 | < 31.6 | 69.1 | 71.4 | 46.2 | 30.9 | 48.4 | 50.9 | 32 | 20.2 | 34.5 | 28.7 | 21.5 | 11.2 | 22.7 | 18.6 | 12.2 | viability, T/C [5]: 23.5%; viability, T/C [6]: 23.8%; viability, T/C [11]: 14.3%; viability, T/C [12]: 14.1%; viability, T/C [17]: 8.48%; viability, T/C [18]: 8.48%; viability, T/C [22]: 7.87%; viability, T/C [23]: 4.55%; viability, T/C [24]: 4.52%; viability, T/C [25]: 10.9%; viability, T/C [26]: 11.7%; viability, T/C [27]: 7.18%; viability, T/C [28]: 2.24%; viability, T/C [29]: 1.59%; viability, T/C [30]: 0.97%
CCNC(=O)CC1N=C(c2ccc(Cl)cc2)c2cc(OC)ccc2-n2c(C)nnc21 (stereo not given) + COc1cc2nc(C)nc(NC(C)c3cc(N)cc(C(F)(F)F)c3)c2cc1OC1CCOC1 | 410 | 411 | 403 | 319 | 224 | 97 | 82.3 | 61.6 | 17.1 | 109 | 96.5 | 62.3 | 10 | 84.6 | 87.8 | 60.9 | 9.34 | 78.9 | 69.9 | 50.8 | viability, T/C [5]: 8.29%; viability, T/C [6]: 5.17%; viability, T/C [11]: 8.83%; viability, T/C [12]: 7.95%; viability, T/C [17]: 7.07%; viability, T/C [18]: 8.48%; viability, T/C [22]: 9.17%; viability, T/C [23]: 6.95%; viability, T/C [24]: 10.1%; viability, T/C [25]: 74.5%; viability, T/C [26]: 59.8%; viability, T/C [27]: 47.5%; viability, T/C [28]: 20.6%; viability, T/C [29]: 10%; viability, T/C [30]: 8.82%
CC1COCCN1c1cc(-c2ccnn2C)c2ccnc(-c3ccn[nH]3)c2n1 (stereo not given) + C=CC(=O)N1CCN(c2nc(=O)n(-c3c(C)ccnc3C(C)C)c3nc(-c4c(O)cccc4F)c(F)cc23)C(C)C1 | < 10 | < 10 | < 10 | < 10 | < 10 | 18.8 | 16 | 14.2 | 11.2 | 18.6 | 14.2 | 11 | 9.77 | 19.3 | 14.3 | 11.3 | 9.8 | 14.9 | 12.8 | 11.3 | viability, T/C [31]: 23.9%; viability, T/C [5]: 10.8%; viability, T/C [32]: 21.8%; viability, T/C [11]: 10.6%; viability, T/C [33]: 21.3%; viability, T/C [17]: 12.5%; viability, T/C [34]: 15.7%; viability, T/C [22]: 9.54%; viability, T/C [23]: 10.3%; viability, T/C [35]: 19.8%; viability, T/C [25]: 17.4%; viability, T/C [26]: 15.5%; viability, T/C [27]: 14.9%; viability, T/C [28]: 12.2%; viability, T/C [29]: 12.8%
CCN1CCN(Cc2ccc(Nc3ncc(F)c(-c4cc(F)c5nc(C)n(C(C)C)c5c4)n3)nc2)CC1 + C=CC(=O)N1CCN(c2nc(=O)n(-c3c(C)ccnc3C(C)C)c3nc(-c4c(O)cccc4F)c(F)cc23)C(C)C1 | < 3.16 | < 3.16 | < 3.16 | < 3.16 | < 3.16 | 17.2 | 18.7 | 19.8 | 24.2 | 16.3 | 16.4 | 18.6 | 25.7 | 16.8 | 17.3 | 22 | 23.7 | 18.6 | 15.9 | 20.4 | viability, T/C (second compound 0.1 µM, first compound 0.00316 µM): 21.6%; viability, T/C [31]: 21.6%; viability, T/C (second compound 0.316 µM, first compound 0.00316 µM): 21.3%; viability, T/C [32]: 19.6%; viability, T/C (second compound 1 µM, first compound 0.00316 µM): 21.3%; viability, T/C [33]: 22.3%; viability, T/C (second compound 3.16 µM, first compound 0.00316 µM): 20.4%; viability, T/C [34]: 21.1%; viability, T/C [22]: 33.8%; viability, T/C (second compound 10 µM, first compound 0.00316 µM): 22.3%; viability, T/C [35]: 20.6%; viability, T/C [25]: 22.3%; viability, T/C [26]: 20.6%; viability, T/C [27]: 27.9%; viability, T/C [28]: 12.8%
